Measurements from patent US20080206311A1, “Sucrase Activity Inhibitor, Glucoamylase Activity Inhibitor and Food and Feed Containing the Same” (MITSUI SUGAR CO., LTD., priority 2005, published 2008).

Tests used:
maltase [1] = assay: Maltase activity inhibition with rat small-intestinal enzyme liquid, substrate maltose; type: biochemical; conditions: 5% maltose + 5% test sample
Procedure: (§1) Palatinose (trade name: Palatinose IC, ex Shin Mitsui Sugar Co., Ltd.) (test sample) was used as a sample for investigating each enzyme activity inhibitory effect. Maltose and sucrose were used as substrates for maltase and sucrose, respectively. The test sample and the substrates were dissolved in 0.1 M phosphate buffer (pH 6.8) at the concentration shown in Table 1 below to prepare test solutions (Solutions 4 and 5). Also, the test sample or the substrates were dissolved in 0.1 M phosphate buffer (pH 6.8), respectively to at the concentration shown in Table 1 below to prepare control solutions (Solution 1 for the test sample and Solutions 2 and 3 for the substrates).
Two grams of rat small-intestinal acetone powder (ex Sigma Corporation) were dissolved in 20 ml of 0.1 M phosphate buffer (pH 6.8), left standing one day at 5° C., and subsequently subjected to centrifugal separation (8000 rpm×15 min.). The supernatant was filtered through a 0.8 μm membrane filter to obtain a small-intestinal enzyme liquid. This liquid contained a mixture of enzymes present in small intestine, such as sucrose, glucoamylase, maltase, and isomaltase. […]
(§2) The glucose concentration in each solution after the reaction was measured using the F-kit Glucose (ex Roche). A liberated glucose concentration (g/l) was calculated by subtracting the blank value (0.1 M phosphate buffer alone) and the concentration of glucose originally contained in the test sample from each glucose concentration measured.
Next, each of the liberated glucose concentration was input in the following equation to obtain decomposition inhibition ratio for maltase and sucrose. […] The decomposition inhibition ratio was determined as a measure for the inhibitory effect. […]
Each 5 ml of the aforementioned test solutions and control solutions was subjected to the enzymatic reaction in the same procedures as in Example 1. The liberated glucose concentration, the decomposition inhibition ratio for maltase and the decomposition inhibition ratio for sucrose were calculated for each solution after the reaction.

maltase [2] = conditions: maltose as substrate; Non-Patent Publication 4; cited from earlier work
[3] = system: small-intestinal enzyme liquid; assay: Decomposition of a saccharide alone (control solution) by small-intestinal enzyme liquid; type: biochemical, rat; conditions: 5% saccharide alone
Procedure: as §1
(§3) Two grams of rat small-intestinal acetone powder (ex Sigma Corporation) were dissolved in 20 ml of 0.1 M phosphate buffer (pH 6.8), left standing one day at 5° C., and subsequently subjected to centrifugal separation (8000 rpm×15 min.). The supernatant was filtered through a 0.8 μm membrane filter to obtain a small-intestinal enzyme liquid. This liquid contained a mixture of enzymes present in small intestine, such as sucrose, glucoamylase, maltase, and isomaltase.
(§4) Each 0.25 ml of the small-intestinal enzyme liquid was added to each 5 ml of Solutions 1 through 5 and placed in a water bath at 37° C. to allow them to react for 60 min. while shaken at 60 strokes/min. After the reaction, they were heated in a boiling water bath for 3 min. for inactivation of the enzymes.
as §2
The fructose concentration was measured using the F-kit Fructose (ex Roche). The liberated fructose concentration, g/l, was obtained by subtracting the blank value (0.1 M phosphate buffer alone) from the resultant fructose concentration.
The procedures in Example 1 were repeated with the exception that palatinit, palatinose or isomaltose was used as a test sample and lactose was used as a substrate. The test samples and the substrate were dissolved in 0.1 M phosphate buffer (pH 6.8) to attain the concentration shown in Table 5 to thereby prepare three test solutions. Besides, each of the test samples or the substrate was dissolved in 0.1 M phosphate buffer (pH 6.8) to attain the concentration shown in Table 5 to thereby prepare control solutions. Each 5 ml of the aforementioned test solutions and the control solutions was subjected to the enzymatic reaction according to the same procedures as in Example 1. The glucose concentration, the fructose concentration and the galactose concentration were measured. The galactose concentration was measured using F-kit Galactose (ex Roche). The liberated galactose concentration, g/l, was calculated by subtracting the blank value (0.1 M phosphate buffer alone) from the measured galactose concentration.

glucoamylase = assay: Glucoamylase activity inhibition with rat small-intestinal enzyme liquid, substrate soluble starch; type: biochemical; conditions: 5% soluble starch + 5% test sample
Procedure: as §3, §4, §2
Next, each of the liberated glucose concentration was input in the following equation to obtain decomposition inhibition ratio for maltase and sucrose. In the present tests, the substrates and the inhibitors were decomposed by enzymes present in the small-intestinal enzyme liquid. However, the enzymes decomposing the substrates are different from the enzymes decomposing the inhibitors. The decomposition inhibition ratio was determined as a measure for the inhibitory effect. When the inhibitor was added, the glucose concentration was lower than that seen when the substrate alone was reacted. A higher decomposition inhibition ratio means a stronger inhibitory effect.
Decomposition inhibition ratio,%={(A+B)−(AB)}+(A+B)×100 [Equation 1]
wherein (A+B) indicates a sum of a liberated glucose concentration in the control solution containing the test sample alone after the reaction (A) and a liberated glucose concentration in the control solution containing the substrate alone after the reaction (B); and (AB) indicates a liberated glucose concentration in the test solution containing the test sample (A) and the substrate (B), after the reaction.
The procedures in Example 1 were repeated with the exception that palatinose and palatinit were used as a test sample and soluble starch was used as a substrate. The test samples and the substrate were dissolved in 0.1 M phosphate buffer (pH 6.8) to attain the concentration shown in Table 6 to thereby prepare two test solutions. Besides, each of the test samples or the substrate was dissolved in 0.1 M phosphate buffer (pH 6.8) to attain the concentration shown in Table 6 to thereby prepare control solutions. Each 5 ml of the aforementioned test solutions and the control solutions was subjected to the enzymatic reaction according to the same procedures as in Example 1 and the liberated glucose concentration and the decomposition inhibition ratio were measured.
The procedures in Example 1 were repeated with the exception that trehalulose was used as a test sample and soluble starch was used as a substrate. The test sample and the substrate were dissolved in 0.1 M phosphate buffer (pH 6.8) to attain the concentration shown in Table 9 to thereby prepare a test solution. Besides, the test sample or the substrate was dissolved in 0.1 M phosphate buffer (pH 6.8) to attain the concentration shown in Table 9 to thereby prepare control solutions. Each 5 ml of the aforementioned test solution and the control solutions was subjected to the enzymatic reaction according to the same procedures as in Example 1 and the liberated glucose concentration and the decomposition inhibition ratio were measured.
The procedures in Example 1 were repeated with the exception that trehalose was used as a test sample and soluble starch was used as a substrate. […]

## OC[C@H]1O[C@H](OC[C@H]2OC(O)(CO)[C@@H](O)[C@@H]2O)[C@H](O)[C@@H](O)[C@@H]1O (stereo partly drawn) [palatinose, isomaltulose]
Maltase [1]
  Maltase activity inhibitory effect (in words): has a maltase activity inhibitory effect
Maltase [1]; 37° C., 60 min
  Liberated glucose concentration: 4.757 ± 0.342 g/L
Maltase [1]; Equation 1
  Decomposition inhibition ratio, %, against maltase: 6%
Maltase [2]
  Maltase activity inhibitory effect (reported): have a maltase activity inhibitory effect
[3]; 37° C., 60 min, pH 6.8, Example 1 / Test Example 1
  Liberated glucose concentration: 0.095 ± 0.010 g/L
[3]; Example 3 / Test Examples 2, 3
  Liberated fructose concentration: 0.21 g/L
  Liberated glucose concentration: 0.11 g/L
[3]; Example 4
  Liberated glucose concentration: 0.205 g/L
[3]; Test Example 3
  Liberated galactose concentration: 0.00 g/L
glucoamylase
  Glucoamylase activity inhibitory effect (in words): have the glucoamylase activity inhibitory effect
glucoamylase; Example 4
  Decomposition inhibition ratio, %, against glucoamylase: 26%
  Liberated glucose concentration: 3.611 g/L
